The source made the active and inactive calls. The rule behind the calls is not given here.
Experiments:
Mus musculus [1] = assay: Anti-inflammatory activity against C57BL/6J mouse model of TNFalpha-induced systemic inflammatory response syndrome (SIRS) assessed as increase in survival rate at 1.25 mg/kg,po 2 hrs prior to mTNFalpha and z-VAD-FMK stimulation and measured upto 24 hrs; type: functional; conditions: time 26 hrs
HT-29 [2] = assay: Anti-necroptic activity against human HT-29 cells assessed as inhibition of TSZ (TNFalpha, Smac mimetic and z-VAD-FMK) induced necroptosis pretreated with compound followed by TSZ stimulation for 16 to 18 hrs by CellTiter-Glo Luminescent cell viability assay; type: functional, cell-based
Mus musculus [3] = assay: Anti-inflammatory activity against C57BL/6J mouse model of TNFalpha-induced systemic inflammatory response syndrome (SIRS) assessed as decrease in IL-1beta level in heart at 1.25 to 5 mg/kg,po 2 hrs prior to mTNFalpha and z-VAD-FMK stimulation for 8 hrs by ELISA; type: functional, organism-based; conditions: dose 1.25-5 mg/kg, time 10.0 hrs
HT-29 [4] = assay: Anti-apoptotic activity against human HT-29 cells assessed as inhibition of TS (human TNFalpha, Smac mimetic) induced apoptosis upto 1 uM pretreated with compound followed […] for 24 hrs by CellTiter-Glo Luminescent cell viability assay; type: functional, cell-based
Mus musculus [5] = assay: Anti-inflammatory activity against C57BL/6J mouse model of TNFalpha-induced systemic inflammatory response syndrome (SIRS) assessed as increase in body temperature at 5 mg/kg,po 2 hrs prior to mTNFalpha and z-VAD-FMK stimulation and measured upto 18 hrs by electric thermometer analysis; type: functional, organism-based; conditions: time 20.0 hrs
[6] = Acute toxicity in mouse assessed as death at 100 to 200 mg/kg,IG and measured upto 14 days; type: organism-based; conditions: in vivo, po, 336 h, dose 100-200 mg/kg, time < 14 day
[7] = target: T1, Mixed lineage kinase domain-like protein (Homo sapiens) (UniProt Q8NB16); assay: Inhibition of MLKL phosphorylation in TSZ induced human HT-29 cells at 1 to 1000 nM pretreated with compound followed by TSZ stimulation for 6 hrs by Western blot analysis; type: cell-based; conditions: dose 1-1000 nM
T1 sequence (whole entry): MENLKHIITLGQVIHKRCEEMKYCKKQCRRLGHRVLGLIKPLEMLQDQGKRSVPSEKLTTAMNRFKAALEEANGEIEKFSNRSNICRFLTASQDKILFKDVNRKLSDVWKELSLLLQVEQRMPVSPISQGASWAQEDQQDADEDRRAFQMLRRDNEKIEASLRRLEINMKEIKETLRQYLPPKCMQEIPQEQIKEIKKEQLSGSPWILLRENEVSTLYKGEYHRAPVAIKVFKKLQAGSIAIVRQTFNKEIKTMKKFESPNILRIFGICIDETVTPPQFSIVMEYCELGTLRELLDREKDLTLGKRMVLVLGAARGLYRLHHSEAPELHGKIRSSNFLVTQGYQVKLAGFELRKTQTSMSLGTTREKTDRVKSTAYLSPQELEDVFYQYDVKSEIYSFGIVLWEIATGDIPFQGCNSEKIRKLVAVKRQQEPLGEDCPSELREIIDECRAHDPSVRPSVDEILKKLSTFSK

[8] = Cytotoxicity against human HT-29 cells assessed as reduction in cell viability incubated for 16 to 24 hrs by CellTiter-Glo Luminescent cell viability assay; type: toxicity, cell-based; conditions: time 16-24 hrs
Mus musculus [9] = assay: Anti-inflammatory activity against C57BL/6J mouse model of TNFalpha-induced systemic inflammatory response syndrome (SIRS) assessed as increase in body temperature at 1.25 mg/kg,po 2 hrs prior to mTNFalpha and z-VAD-FMK stimulation and measured upto 18 hrs by electric thermometer analysis; type: functional, organism-based; conditions: time 20.0 hrs
[10] = Acute toxicity in mouse assessed as body weight loss at 100 to 200 mg/kg,IG and measured upto 14 days; type: organism-based; conditions: in vivo, po, 336 h, dose 100-200 mg/kg, time < 14 day
[11] = target: T2, Receptor-interacting serine/threonine-protein kinase 3 (Homo sapiens, UniProt Q9Y572); assay: Binding affinity to recombinant RIPK3 (unknown origin) assessed as dissociation constant incubated for 1 hr by KINOMEscanTM assay
Target sequence in this assay (Q9Y572 whole entry): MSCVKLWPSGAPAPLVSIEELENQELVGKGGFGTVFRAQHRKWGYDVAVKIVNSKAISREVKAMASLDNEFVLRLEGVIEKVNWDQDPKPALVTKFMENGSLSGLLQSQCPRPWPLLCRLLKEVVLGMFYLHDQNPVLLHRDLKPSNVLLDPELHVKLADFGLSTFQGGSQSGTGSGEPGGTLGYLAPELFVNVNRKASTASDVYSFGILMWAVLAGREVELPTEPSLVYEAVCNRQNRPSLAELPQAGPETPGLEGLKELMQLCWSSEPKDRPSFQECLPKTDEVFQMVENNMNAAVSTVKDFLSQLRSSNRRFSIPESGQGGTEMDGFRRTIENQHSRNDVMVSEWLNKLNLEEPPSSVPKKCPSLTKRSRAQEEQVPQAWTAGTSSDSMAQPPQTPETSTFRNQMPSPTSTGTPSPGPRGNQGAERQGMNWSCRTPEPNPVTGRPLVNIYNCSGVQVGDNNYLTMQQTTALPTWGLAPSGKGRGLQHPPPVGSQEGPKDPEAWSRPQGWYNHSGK

Mus musculus [12] = assay: Anti-inflammatory activity against C57BL/6J mouse model of TNFalpha-induced systemic inflammatory response syndrome (SIRS) assessed as increase in survival rate at 5 mg/kg,po 2 hrs prior to mTNFalpha and z-VAD-FMK stimulation and measured upto 24 hrs; type: functional; conditions: time 26 hrs
Mus musculus [13] = assay: Anti-inflammatory activity against C57BL/6J mouse model of TNFalpha-induced systemic inflammatory response syndrome (SIRS) assessed as increase in body temperature at 2.5 mg/kg,po 2 hrs prior to mTNFalpha and z-VAD-FMK stimulation and measured upto 18 hrs by electric thermometer analysis; type: functional, organism-based; conditions: time 20.0 hrs
Mus musculus [14] = assay: Anti-inflammatory activity against C57BL/6J mouse model of TNFalpha-induced systemic inflammatory response syndrome (SIRS) assessed as decrease in IL-6 level in kidney at 1.25 to 5 mg/kg,po 2 hrs prior to mTNFalpha and z-VAD-FMK stimulation for 8 hrs by ELISA; type: functional, organism-based; conditions: dose 1.25-5 mg/kg, time 10.0 hrs
[15] = Acute toxicity in mouse assessed as pathological damage in spleen at 100 to 200 mg/kg,IG and measured after 14 days by H and E staining based microscopy; type: organism-based; conditions: in vivo, po, 336 h, dose 100-200 mg/kg, time 14 day
[16] = target: T2, Receptor-interacting serine/threonine-protein kinase 3; assay: Inhibition of RIPK3 phosphorylation in TSZ induced human HT-29 cells at 1 to 1000 nM pretreated with compound followed by TSZ stimulation for 6 hrs by Western blot analysis; type: cell-based; conditions: dose 1-1000 nM
Target sequence in this assay (Q9Y572 whole entry, looked up): as the sequence (Q9Y572 whole entry) above

[17] = target: T3, Receptor-interacting serine/threonine-protein kinase 1 (Homo sapiens) (UniProt Q13546); assay: Inhibition of RIPK1 phosphorylation in TSZ induced human HT-29 cells at 1 uM pretreated with compound followed by TSZ stimulation for 6 hrs by Western blot analysis; type: cell-based
T3 sequence (whole entry): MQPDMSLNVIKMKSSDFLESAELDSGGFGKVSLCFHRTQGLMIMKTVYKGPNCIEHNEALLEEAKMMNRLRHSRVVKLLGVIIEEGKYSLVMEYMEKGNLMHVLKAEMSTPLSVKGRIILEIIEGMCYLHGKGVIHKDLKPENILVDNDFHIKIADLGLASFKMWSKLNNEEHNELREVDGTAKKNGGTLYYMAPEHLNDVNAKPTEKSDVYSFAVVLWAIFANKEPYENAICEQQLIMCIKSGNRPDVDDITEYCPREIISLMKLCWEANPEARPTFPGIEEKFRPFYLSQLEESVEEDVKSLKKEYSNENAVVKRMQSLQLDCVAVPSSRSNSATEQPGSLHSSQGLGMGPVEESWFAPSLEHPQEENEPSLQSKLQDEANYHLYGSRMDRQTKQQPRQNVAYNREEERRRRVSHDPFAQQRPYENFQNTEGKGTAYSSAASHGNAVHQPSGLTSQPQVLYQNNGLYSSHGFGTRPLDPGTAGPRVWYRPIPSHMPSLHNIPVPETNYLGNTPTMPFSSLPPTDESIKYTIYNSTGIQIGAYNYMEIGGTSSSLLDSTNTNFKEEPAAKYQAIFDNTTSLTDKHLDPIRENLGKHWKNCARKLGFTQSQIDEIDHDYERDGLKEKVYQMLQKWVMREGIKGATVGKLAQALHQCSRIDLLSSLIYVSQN

[18] = Acute toxicity in mouse assessed as behavioral changes at 100 to 200 mg/kg,IG and measured upto 14 days; type: organism-based; conditions: in vivo, po, 336 h, dose 100-200 mg/kg, time < 14 day

O=C(Cc1cccc(OC(F)(F)F)c1)Nc1cc(-c2ccc3nc(NC(=O)C4CC4)sc3c2)ccc1F
survival at 1.25 mg/kg (Mus musculus [1]): 70% | EC50 (HT-29 [2]): 17 nM | Activity (Mus musculus [3]): inactive | Activity (HT-29 [4]): inactive | Activity (Mus musculus [5]): Active | Activity [6]: Non-Toxic | inhibition [7]: Dose-Dependent Effect | CC50 [8]: > 10000 nM | Activity (Mus musculus [9]): Active | Activity [10]: Non-Toxic | Kd [11]: > 5000 nM | survival at 5 mg/kg (Mus musculus [12]): 100% | Activity (Mus musculus [13]): Active | Activity (Mus musculus [14]): Dose-Dependent Effect | Activity [15]: Non-Toxic | inhibition [16]: Dose-Dependent Effect | inhibition [17]: Active | Activity [18]: Non-Toxic

Source: ChEMBL document CHEMBL5370665, “Insight from Linker Investigations: Discovery of a Novel Phenylbenzothiazole Necroptosis Inhibitor Targeting Receptor-Interacting Protein Kinase 1 (RIPK1) from a Phenoxybenzothiazole Compound with Dual RIPK1/3 Targeting Activity” (J Med Chem, 2023)
